In patent publication US20130029928A1 (priority 2010, published 2013):
Where two headings read alike, the source gives them in different places.

Assay: Phase I study CXR1002-001: plasma pharmacokinetics (LC-MS/MS)
Type: in vivo, human
Conditions: human, plasma, oral; for concentration at 843 h / concentration at 844 h / concentration at 864 h / concentration at 3 h / concentration at 4 h / concentration at 24 h / concentration at 168 h / concentration at 170 h / concentration at 171 h / concentration at 192 h / concentration at 336 h / concentration at 338 h / concentration at 339 h / concentration at 340 h / concentration at 360 h / concentration at 504 h / concentration at 506 h / concentration at 507 h / concentration at 508 h / concentration at 528 h / concentration at 672 h / concentration at 674 h / concentration at 675 h / concentration at 676 h / concentration at 696 h / concentration at 840 h / concentration at 842 h / concentration at 2 h / concentration at 172 h: read-out: Concentration; for concentration at 864 h: 864 hr (Day 37); for concentration at 24 h: 24 hr (Day 2); for concentration at 168 h: 168 hr (Day 8); for concentration at 336 h: 336 hr (Day 15); for concentration at 504 h: 504 hr (Day 22); for concentration at 528 h: 528 hr (Day 23); for concentration at 672 h: 672 hr (Day 29); for concentration at 840 h: 840 hr (Day 36)
Excerpt: PK samples, PD (fasting) samples, blood glucose, and blood triglyceride samples, were taken over a 6-week period.
Dose limiting toxicity (DLT) will be based on the toxicity assessments over the first 3-week period of the repeat dosing schedule. PK samples (single blood sample) were taken on the following basis: • Every 6 weeks during the repeat dosing phase • If dosing is interrupted or stopped, samples will be taken at intervals according to patient convenience • PK sampling for safety evaluation may take place at any time, as clinically indicated
Plasma samples were collected after the single 50 mg dose at the following timepoints: Pre-dose, and then 0.25, 0.5, 0.75, 1, 1.5, 2, 3, 4, 6, 24, 48, and 72 hours after administration and then once weekly at weeks 2, 3, 4, 5, and 6 (days 8, 15, 22, 29, and 36). For patients treated with the weekly repeat dose, plasma samples were collected at the following timepoints: Pre-dose and then 2, 3, 4 and 24 hours after administration for a total of 6 weeks. Thereafter a single sample was collected every 6 weeks for monitoring of exposure during long term treatment. Plasma samples were processed at site and stored at −80° C. prior to batch shipment to the analytical laboratory.

[1] = 300 mg, Patient 014 Dose 300 mg
[2] = 450 mg, Patient 015 Dose 450 mg
[3] = 450 mg, Patient 016 Dose 450 mg
[4] = 450 mg, Patient 017 Dose 450 mg
[5] = 600 mg, Patient 018, 600 mg, person
[6] = 600 mg, Patient 020, 600 mg, person
[7] = 600 mg, Patient 021, 600 mg, person

Work on `O=C(O)C(F)(F)C(F)(F)C(F)(F)C(F)(F)C(F)(F)C(F)(F)C(F)(F)F` [CXR1002] yielded a concentration at 843 h [1] of 520 µM, a concentration at 844 h [1] of 563 µM and a concentration at 864 h [1] of 488 µM. It also gave a concentration at 12 week (300 mg, Patient 014 Dose 300 mg, Week 12) of 890 µM, a concentration at 18 week (300 mg, Patient 014 Dose 300 mg, Week 18) of 980 µM and a concentration at 3 h [2] of 231 µM. For the same compound, the concentration at 4 h [2] was 217 µM, the concentration at 24 h [2] was 126 µM and the concentration at 168 h [2] was 138 µM. For the same compound, the concentration at 170 h [2] was 325 µM, the concentration at 171 h [2] was 314 µM and the concentration at 192 h (450 mg, Patient 015 Dose 450 mg, 192 hr (Day 9)) was 294 µM. For the same compound, the concentration at 336 h [2] was 286 µM, the concentration at 338 h [2] was 463 µM and the concentration at 339 h [2] was 393 µM. The concentration at 340 h [2] was 424 µM, the concentration at 360 h (450 mg, Patient 015 Dose 450 mg, 360 hr (Day 16)) was 412 µM and the concentration at 504 h [2] was 387 µM. For the same compound, the concentration at 506 h [2] was 579 µM, the concentration at 507 h [2] was 548 µM and the concentration at 508 h [2] was 513 µM. It also gave a concentration at 528 h [2] of 551 µM, a concentration at 672 h [2] of 544 µM and a concentration at 674 h [2] of 622 µM. For the same compound, the concentration at 675 h [2] was 633 µM, the concentration at 676 h [2] was 675 µM and the concentration at 696 h (450 mg, Patient 015 Dose 450 mg, 696 hr (Day 30)) was 708 µM. The concentration at 840 h [2] was 575 µM, the concentration at 842 h [2] was 703 µM and the concentration at 843 h [2] was 655 µM. For the same compound, the concentration at 844 h [2] was 801 µM, the concentration at 864 h [2] was 592 µM and the concentration at 2 h [3] was 108 µM. It also gave a concentration at 3 h [3] of 126 µM, a concentration at 4 h [3] of 88.1 µM and a concentration at 24 h [3] of 164 µM. For the same compound, the concentration at 170 h [3] was 328 µM, the concentration at 171 h [3] was 255 µM and the concentration at 172 h [3] was 244 µM. For the same compound, the concentration at 192 h (450 mg, Patient 016 Dose 450 mg, 192 hr (Day 9)) was 348 µM, the concentration at 336 h [3] was 287 µM and the concentration at 338 h [3] was 418 µM. It also gave a concentration at 339 h [3] of 454 µM, a concentration at 340 h [3] of 442 µM and a concentration at 360 h (450 mg, Patient 016 Dose 450 mg, 360 hr (Day 16)) of 471 µM. The concentration at 504 h [3] was 546 µM, the concentration at 506 h [3] was 693 µM and the concentration at 507 h [3] was 721 µM. For the same compound, the concentration at 508 h [3] was 698 µM, the concentration at 528 h [3] was 692 µM and the concentration at 672 h [3] was 605 µM. For the same compound, the concentration at 674 h [3] was 907 µM, the concentration at 675 h [3] was 745 µM and the concentration at 676 h [3] was 732 µM. It also gave a concentration at 696 h (450 mg, Patient 016 Dose 450 mg, 696 hr (Day 30)) of 871 µM, a concentration at 2 h [4] of 99.7 µM and a concentration at 3 h [4] of 136 µM. For the same compound, the concentration at 4 h [4] was 163 µM, the concentration at 336 h [4] was 216 µM and the concentration at 338 h [4] was 325 µM. For the same compound, the concentration at 339 h [4] was 342 µM, the concentration at 360 h (450 mg, Patient 017 Dose 450 mg, 360 hr) was 258 µM and the concentration at 672 h [4] was 404 µM. The concentration at 674 h [4] was 451 µM, the concentration at 675 h [4] was 497 µM and the concentration at 676 h [4] was 485 µM. The concentration at 696 h (450 mg, Patient 017 Dose 450 mg, 696 hr) was 483 µM, the concentration at 2 h [5] was 339 µM and the concentration at 3 h [5] was 280 µM. The concentration at 4 h [5] was 248 µM, the concentration at 24 h [5] was 213 µM and the concentration at 168 h [5] was 181 µM. The concentration at 170 h [5] was 398 µM, the concentration at 171 h [5] was 407 µM and the concentration at 192 h (600 mg, Patient 018, 600 mg, person, 192 hr (day 9)) was 386 µM. The concentration at 336 h [5] was 356 µM, the concentration at 338 h [5] was 551 µM and the concentration at 339 h [5] was 563 µM. It also gave a concentration at 340 h [5] of 591 µM, a concentration at 360 h (600 mg, Patient 018, 600 mg, person, 360 hr (Day 16)) of 554 µM and a concentration at 2 h [6] of 208 µM. It also gave a concentration at 4 h [6] of 180 µM, a concentration at 24 h [6] of 413 µM and a concentration at 168 h [6] of 125 µM. It also gave a concentration at 170 h [6] of 327 µM, a concentration at 171 h [6] of 310 µM and a concentration at 172 h [6] of 279 µM. For the same compound, the concentration at 192 h (600 mg, Patient 020, 600 mg, person, 192 hr (day 9)) was 268 µM, the concentration at 336 h [6] was 272 µM and the concentration at 338 h [6] was 474 µM. For the same compound, the concentration at 339 h [6] was 434 µM, the concentration at 340 h [6] was 438 µM and the concentration at 360 h (600 mg, Patient 020, 600 mg, person, 360 hr (Day 16)) was 410 µM. The concentration at 504 h [6] was 441 µM, the concentration at 506 h [6] was 477 µM and the concentration at 507 h [6] was 526 µM. It also gave a concentration at 508 h [6] of 536 µM, a concentration at 528 h [6] of 563 µM and a concentration at 672 h [6] of 540 µM. It also gave a concentration at 674 h [6] of 547 µM, a concentration at 675 h [6] of 603 µM and a concentration at 676 h [6] of 652 µM. For the same compound, the concentration at 696 h (600 mg, Patient 020, 600 mg, person, 696 hr (Day 30)) was 615 µM, the concentration at 840 h [6] was 582 µM and the concentration at 842 h [6] was 700 µM. The concentration at 843 h [6] was 764 µM, the concentration at 844 h [6] was 770 µM and the concentration at 864 h [6] was 703 µM. The concentration at 2 h [7] was 77.2 µM, the concentration at 3 h [7] was 121 µM and the concentration at 24 h [7] was 203 µM. The concentration at 168 h [7] was 218 µM, the concentration at 170 h [7] was 504 µM and the concentration at 171 h [7] was 417 µM. The concentration at 172 h [7] was 451 µM.
